Values of other authors in patent US9682072B2, “Compositions and methods for treatment of lung dysfunction” (Children's Hospital Medical Center, priority 2015, dated 2017).

Columns and labels:
[1] = tested on: ovalbumin-induced lung inflammation; details: mouse, in vivo
[2] = molecular target: T1, FOXM1 (Homo sapiens, UniProt Q08050)
T1 sequence (Q08050 1-763): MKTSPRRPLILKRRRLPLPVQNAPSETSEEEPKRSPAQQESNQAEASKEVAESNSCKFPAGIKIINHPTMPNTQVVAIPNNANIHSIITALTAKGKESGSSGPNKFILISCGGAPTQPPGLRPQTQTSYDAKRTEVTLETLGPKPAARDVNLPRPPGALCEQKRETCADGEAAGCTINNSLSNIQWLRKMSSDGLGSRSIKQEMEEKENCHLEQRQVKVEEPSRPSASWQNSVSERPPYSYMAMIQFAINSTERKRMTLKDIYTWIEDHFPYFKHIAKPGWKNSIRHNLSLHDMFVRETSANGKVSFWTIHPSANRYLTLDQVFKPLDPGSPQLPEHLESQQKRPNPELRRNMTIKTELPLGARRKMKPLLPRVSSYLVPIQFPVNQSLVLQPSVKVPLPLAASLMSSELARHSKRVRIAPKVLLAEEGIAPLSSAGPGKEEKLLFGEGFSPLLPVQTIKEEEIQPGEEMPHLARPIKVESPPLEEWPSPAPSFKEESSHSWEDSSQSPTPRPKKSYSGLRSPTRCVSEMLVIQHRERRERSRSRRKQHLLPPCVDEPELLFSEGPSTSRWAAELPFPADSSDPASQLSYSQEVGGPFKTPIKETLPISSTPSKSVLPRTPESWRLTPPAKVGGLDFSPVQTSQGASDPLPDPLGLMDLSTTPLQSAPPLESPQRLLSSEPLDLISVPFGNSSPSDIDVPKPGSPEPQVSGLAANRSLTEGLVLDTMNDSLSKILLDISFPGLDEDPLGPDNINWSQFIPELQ

SMILES | ovalbumin-induced lung inflammation [1] | binding of FOXM1 to its target DNA [2]
N#CC(=C(/N)Sc1ccccc1N)/C(C#N)=C(\N)Sc1ccccc1N [Compound U0126] | diminished | 
Nc1c(C(=O)Nc2ccc(F)cc2)sc2nc(-c3cccs3)cc(C(F)(F)F)c12 [FDI-6] |  | inhibits
